US9932300B2, “N,N′-diarylurea compounds and N,N′-diarylthiourea compounds as inhibitors of translation initiation” (President and Fellows of Harvard College, priority 2009, dated 2018)

Test system: eIF2-GTP-Met-tRNAi ternary complex
Assay: Ternary complex assay (dual luciferase, firefly/renilla ratio) in stable KLN-tTA/pBISA-DL(ATF-4) cells; HTS and hit confirmation
Type: cell-based, mouse
Design: Activity 10 uM / Activity 2.5 uM / Activity 5 uM: unit not given here
Details: confirmed hits of the screen (Table 5); for Activity 5 uM: compound at 5 uM; for Activity 10 uM: compound at 10 uM; for Activity 2.5 uM: compound at 2.5 uM

SMILES	Activity 5 uM	Activity 10 uM	Activity 2.5 uM
COc1ccc(N=Nc2cc(C)c(C)cc2O)cc1 [Compound 209832]	9.509	4.7795	
O=[N+]([O-])c1ccc(OCc2ccc(CBr)cc2)c(Cl)c1 [Compound 212379]		4.4	2.28
Cc1ccnc(NC(=O)Nc2cc(F)ccc2F)c1 [Compound 213710]	4.183	5.091	
O=C(Nc1ccc(F)cc1)OCC1CC2C=CC1C2 (stereo not shown) [Compound 213848]	4.586	3.5355	
O=C(Nc1ccc(CCO)cc1)Nc1ccccc1F [Compound 214004]	5.299	6.0655	
O=C(Nc1ccc2ccccc2c1)c1cccc(F)c1 [Compound 214029]	5.245	6.8665	
O=C(Nc1ccc2ccccc2c1)c1ccc(F)cc1 [Compound 214041]	6.705	8.374	
CCCCCCOC(=O)Nc1cccc(O)c1 [Compound 222612]	4.521	2.88	
O=C(O)c1ccc(/C=N\Nc2ccccc2)cc1 [Compound 227290]	5.935	6.8065	
O=S(=O)(Cc1ccccc1)CC(Br)CBr (stereo not shown) [Compound 229344]		4.4	1.28
O=C1c2ccccc2C(=O)c2c1ccc1c2CCCC1 [Compound 230359]	4.465	8.3955	
CN(C)c1ccc(/C=N/Nc2ccccc2)cc1 [Compound 230415]	2.468	3.3005	
[C-]#[N+]C1CCCCC1.[C-]#[N+]C1CCCCC1.[C-]#[N+]C1CCCCC1.[C-]#[N+]C1CCCCC1.[C-]#[N+]C1CCCCC1.[C-]#[N+]C1CCCCC1.[Mn] [Compound 231980]	4.1	3.8	
COc1c(O)c2c(=O)cc3c4c5c(cc(=O)c6c(O)c(OC)c(CC(C)O)c(c(c1CC(C)O)c24)c65)OCO3 (stereo not shown) [Compound 234486]			10
[Br][Ni][Br].c1ccc(CN2CCN(Cc3ccccc3)CCN(Cc3ccccc3)CCN(Cc3ccccc3)CC2)cc1 [Compound 236237]		57.44	1.78
CN(C)c1ccc(C(=N)Cc2ccc3ccccc3n2)cc1 [Compound 240575]	6.23	7.0215	
CN(C)c1ccc(C(O)Cc2ccc3ccccc3n2)cc1 (stereo not shown) [Compound 240576]	5.47	6.2885	
CN(C)c1ccc(C(=O)Cc2ccc3ccccc3n2)cc1 [Compound 240577]		4.63	2.68
CN(C)c1ccc(-c2nc3ccccn3c2N)cc1 [Compound 240724]	3.594	4.257	
CN(C)c1ccc(N=Nc2ccc(C(=O)Cl)cc2)cc1 [Compound 240870]	6.352	7.2395	
C=C1C(=O)OC2CCCCC3OC3C12 (stereo not shown) [Compound 258618]		3.2	0.85

SMILES	Activity 5 uM	Activity 10 uM	Activity 2.5 uM
[O-][n+]1c2ccccc2nn1-c1ccc(N(CCCl)CCCl)cc1 [Compound 260514]		3.87	1.94
CNC(=S)N/N=C/c1nccc(-c2ccccc2)c1C [Compound 262421]		107.79	24.56
CCCCCCCCCCCCCCCC[N+](C)(C)Cc1ccccc1.[Br-] [Compound 263517]		8.78	1.39
CC(=O)OCC1OC(n2nnc(CCl)c2CCl)C(OC(C)=O)C(OC(C)=O)C1OC(C)=O (stereo not shown) [Compound 268393]			0.71
CN(C)c1ccc(/C=C/c2ccc3ccccc3[n+]2[O-])cc1 [Compound 268776]	5.767	5.5035	
Cc1cc(OC(=O)Nc2ccc(Cl)c([N+](=O)[O-])c2)c(Cl)cc1Br [Compound 270151]		3.16	1.24
COc1cc2c(cc1O)C(=O)c1[nH]c3ccccc3c1CC2 [Compound 271272]		4.93	2.76
O=C(OCC1OC(n2cc[n+]([O-])nc2=O)C(OC(=O)c2ccccc2)C1OC(=O)c1ccccc1)c1ccccc1 (stereo not shown) [Compound 276293]			20.35
O=C(Nc1ncc([N+](=O)[O-])s1)c1cccnc1 [Compound 276393]	6.644	8.706	
CCOC(=O)[C]1([Hg][CH3])N=NC(C(=O)OC)=C1C(=O)OC (stereo not shown) [Compound 278352]			3.81
Cc1ccc(S(=O)(=O)C(c2ccccc2)C(Br)C(=O)c2ccccc2)cc1 (stereo not shown) [Compound 280894]			2.06
O=C1c2ccccc2C(=O)c2c1oc1c2ccc2ccccc21 [Compound 281986]		3.37	3.11
Br[CH](Br)[Hg][c]1ccccc1 [Compound 286678]			1.72
CCCCC(OC(=O)c1ccccc1)c1cc(OC(=O)c2ccccc2)c2c(c1OC(=O)c1ccccc1)CC(C)=C(C)C2 (stereo not shown) [Compound 287407]		36.2	3.93
CC1=C(C)CC2C(=O)C(C(O)CC(C)C)=CC(=O)C2C1 (stereo not shown) [Compound 287413]		17.06	0.68
CCN1/C(=C/C=C2\CCC(/C=C/c3sc4ccc(Cl)cc4[n+]3CC)=C2N(c2ccccc2)c2ccccc2)Sc2ccc(Cl)cc21.[O-][Cl+3]([O-])([O-])[O-] [Compound 290436]	3.8	20.4	
CCC[CH2][Sn]1([CH2]CCC)[O]C2C(CO)OC(n3c(Br)c(C#N)c4c(N)ncnc43)C2[O]1 (stereo not shown) [Compound 291104]		3.83	1.4
c1ccc2c(c1)cnc1c3ccccc3nn21 [Compound 292587]	2.577	3.294	
CN(C)c1cc(=O)c2c(ccc3ccccc32)o1 [Compound 292795]	3.69	4.66	
CCN(C)c1cc(=O)c2c(ccc3ccccc32)o1 [Compound 292796]	4.759	5.6	
S=C(N=Nc1ccccc1)N[N-]c1ccccc1.S=C(N=Nc1ccccc1)N[N-]c1ccccc1.[Zn+2] [Compound 293939]		7.78	1.54

SMILES	Activity 5 uM	Activity 10 uM	Activity 2.5 uM
CCOC(=C\C=C\C1=[N+](C)c2ccccc2C1(C)C)/C=C/C=C1/N(C)c2ccccc2C1(C)C.F[B-](F)(F)F [Compound 295477]		9.07	6.24
CCCCCCCCCCCCCCCC[N+](C)(C)CCOC(C)=O.O=S(=O)([O-])C(F)(F)F [Compound 297153]		4.39	0.95
CCCCCCCCCCCCCCCC[N+](C)(C)CCN=[N+]=[N-].O=S(=O)([O-])C(F)(F)F [Compound 297154]		5.62	1.24
Br.CCCCCCCCCCCCCCCC[N+](C)(C)CCN.[Br-] [Compound 297156]		5.15	1.08
CCCCC(Oc1cc(C(C)(C)C)c(O)c(C(C)(C)C)c1)C(=O)O (stereo not shown) [Compound 297621]			18.95
O=C(NC(=O)c1c(F)cccc1F)Nc1nc2ccccc2s1 [Compound 298153]		3.43	3.67
c1ccc(-c2ccc(-c3csnn3)cc2)cc1 [Compound 298243]	2.747	3.327	
CN(C)c1ccc(N=Nc2ccc3c4c(cccc24)-c2ccccc2-3)cc1 [Compound 299107]		279.99	8.13
[Pd].[Pd].[S-]CC[S-].[S-]CC[S-].c1ccc([PH+](c2ccccc2)c2ccccc2)cc1.c1ccc([PH+](c2ccccc2)c2ccccc2)cc1 [Compound 300554]		8.96	0.48
CC(C)[S-].CC(C)[S-].[Pt+2].c1ccc([PH+](c2ccccc2)c2ccccc2)cc1.c1ccc([PH+](c2ccccc2)c2ccccc2)cc1 [Compound 300559]		4.71	0.71
Cc1ccc(NC(=O)c2cc3ccccc3cc2O)c(C)c1.Cc1ccc(NC(=O)c2cc3ccccc3cc2O)c(C)c1.[Mn+2] [Compound 306697]		19.5	1.77
FC(F)(F)c1cc(NC2=NCCN=C(Nc3cc(C(F)(F)F)cc(C(F)(F)F)c3)SS2)cc(C(F)(F)F)c1 [Compound 309898]		13.68	1.07
C[N+]1=C(/C=C/Nc2cc3c4ccccc4ccc3c3ccccc23)C(C)(C)c2ccccc21.[Cl-] [Compound 313162]		4.03	1.07
CN(C)Cc1[c-]c(CN(C)C)ccc1.[Br][Pt] [Compound 315819]		13.17	2.12
Clc1cc[c]([Sb]2([c]3ccc(Cl)cc3)([c]3ccc(Cl)cc3)[O]C(C(Cl)(Cl)Cl)[O]2)cc1 (stereo not shown) [Compound 316746]		6.11	0.88
[C-]#[O+].[C-]#[O+].[C-]#[O+].[CH3][Sn]([c]1ccccc1)[c]1ccccc1.[Co].c1ccc([PH+](c2ccccc2)c2ccccc2)cc1 [Compound 319697]			3.1
[C-]#[O+].[C-]#[O+].[C-]#[O+].[C-]#[O+].[C-]#[O+].[CH3][Sn]([Cl])[c]1ccccc1.[Mn] [Compound 319699]		3.62	0.29
S=c1nccc[nH]1.[Pd] [Compound 321197]	5.014	5.0845	
S=c1nccc[nH]1.[Pt] [Compound 321198]	8.313	9.062	
COc1ccc(CCN2C(=O)C(=O)N(c3ccc(Cl)c(Cl)c3)C2=O)cc1OC [Compound 323938]		5.53	0.99
CCCCCC(CN(C)C)C(=O)CC(SCC)c1ccc(Cl)c(Cl)c1 (stereo not shown) [Compound 326123]		12.9	0.47
